Patent US12545637B2, “Extrahepatic targeted cationic lipid compound with high efficiency and low toxicity and its composition” (BEIJING YOUCARE KECHUANG PHARMACEUTICAL TECHNOLOGY CO., LTD., priority 2023, dated 2026)

Key:
[1] = Detection of encapsulation efficiency, drug loading concentration and total RNA concentration (RiboGreen); type: physicochemical
Source text: Encapsulation efficiency is a key quality attribute of liposomes, which refers to the percentage of drug content encapsulated in the lipid bimolecular layer accounting for the total drug dose and can reflect the degree of drug encapsulation in liposomes. The Chinese Pharmacopoeia stipulates that the encapsulation efficiency should generally not be less than 80%.
The drug loading amount is the ratio of the amount of drug in the liposome to the total amount of drug and carrier in the liposome. The drug loading amount directly affects the clinical application dose of the drug. […] The drug loading concentration is proportional to the drug loading amount, and the relative proportion of the drug loading concentrations can represent the relative proportion of the drug loading amounts. The relative ratio of the total RNA concentrations may represent the relative ratio of the amounts of mRNA carried by the LNP formulations.
1×TE buffer, 0.1% Triton X-100 buffer, RiboGreen reagent (1: 200) and mRNA standard stock solution were prepared.
An appropriate amount of the sample was added to an appropriate amount of 1×TE buffer, and the mixture was diluted to obtain a solution containing approximately […] sample per 1 mL. Then the sample was added to a 96-well plate, and 50 μL of the diluted test sample or the mRNA standard stock solution was added to each well, then 1×TE buffer and 0.1% Triton X-100 buffer were added. The sample was incubated at 37° C. for 10 minutes, and 100 μL RiboGreen reagent (1:200) was added to each well of the test sample in the 96-well plate. The sample was centrifugated, and the data were read using a microplate reader, and processed.

[2] = system: 293T cells; test: Fluorescent detection of Fluc-mRNA (cell transfection efficiency of LNP formulations); type: cell-based
Protocol: (§1) Seeding plate: The cells in the culture dish were digested and counted. Cells were spread in a 96-well plate at 10,000 cells per well and in a 12-well plate at 150,000 cells per well. Cells were cultured overnight until the cells adhered to the wall.
The corresponding reagents were added according to the instructions of the Gaussia Luciferase Assay Kit, and the fluorescence expression intensity of each well was detected by an IVIS fluorescence detection system.

[3] = system: 293T cells; test: Cell transfection test of LNP formulation of eGFP-mRNA (optimization of preparation conditions); type: cell-based
Protocol: The cationic lipid compound YK-407 synthesized in Example 1 was dissolved in ethanol with DSPC (AVT (Shanghai) Pharmaceutical Technology Co., Ltd.), cholesterol (AVT (Shanghai) Pharmaceutical Technology Co., Ltd.) and DMG-PEG2000 according to a molar ratio of 49:10:39.5:1.5, respectively, to prepare an ethanol lipid solution. The ethanol lipid solution was quickly added to citrate buffer (pH=4-5) by ethanol injection method, and vortexed for 30s for later use. eGFP-mRNA was diluted in citrate buffer (pH=4-5) to give an aqueous mRNA solution. A certain volume of liposome solution and mRNA aqueous solution were used to prepare liposomes at weight ratios of total lipids to mRNA of 5:1, 10:1, 15:1, 20:1, 30:1 and 35:1, respectively. The mixtures were sonicated at 25° C. for 15 min (with an ultrasonic frequency of 40 kHz and an ultrasonic power of 800 W). The resulted liposomes were diluted to 10 times volume with PBS, and then ultrafiltered with a 300KDa ultrafiltration tube to remove ethanol. Then the volume was fixed to a certain volume with PBS to give an LNP formulation encapsulating eGFP-mRNA using cationic lipid YK-407/DSPC/cholesterol/DMG-PEG2000 (49:10:39.5:1.5 in molar percentage).
The LNP formulation encapsulating eGFP-mRNA was prepared according to the method in 1, wherein the molar ratios of cationic lipid YK-407 to neutral lipid DSPC were 1:1, 3:1, 3.5:1, 4:1, 4.5:1, 4.9:1, 10:1, 15:1 and 20:1.
The LNP formulation encapsulating eGFP-mRNA was prepared according to the method in 1, wherein the cationic lipid in the carrier was YK-407, and the molar ratios of the polymer-conjugated lipid DMG-PEG2000 to the carrier were 0.5%, 1.5%, 3.5%, 5%, 10% and 15%, respectively.
The LNP formulation encapsulating eGFP-mRNA was prepared according to the method in 1, wherein the molar ratios of cationic lipid YK-407, neutral lipid DSPC, structured lipid cholesterol and polymer-conjugated lipid DMG-PEG2000 were 75:5:15:5, 49:10:39.5:1.5, 45:10:43.5:1.5, 45:25:20:10, 40:10:48.5:1.5, 35:10:53.5:1.5 and 25:5:65:5, respectively.
Cell recovery and passage: 293T cells were recovered, cultured in a culture dish, and passaged to the required number of cells.
as §1
Cell transfection test: The LNP formulation containing 1.5 μg of eGFP-mRNA prepared in Example 2 (the cationic lipid in the carrier was YK-407) and the Lipofectamin 3000 formulation of eGFP-mRNA were added respectively to the cell culture medium of the 12-well plate, and further incubated for 24 hours. The transfection efficiency of different samples was then investigated according to the fluorescence intensity by observing with a fluorescence microscope.

[4] = system: 293T cells; test: Fluorescent detection of Fluc-mRNA (cell transfection efficiency of LNP formulations); type: cell-based; remark: listed apart in the source
[5] = LNP formulation prepared from the cationic lipid

## CCCCCCCCC(CCCCCCCC)C(=O)OCCCCCCN(CCO)CCN(CCO)CCCCCCOC(=O)C(CCCCCCCC)CCCCCCCC [YK-402]
[1]; [5]
  Drug loading concentration: 37.67 µg/mL
  Encapsulation efficiency: 91.0%
  Total RNA concentration: 40.09 µg/mL
[1]; difference vs ALC-0315
  encapsulation efficiency higher than ALC-0315: 27.7%
[1]; difference vs HIMA (HHMA)
  encapsulation efficiency higher than HIMA: 30.8%
[1]; difference vs SM-102
  encapsulation efficiency higher than SM-102: 28.1%
[1]; difference vs YK-009
  encapsulation efficiency higher than YK-009: 27.6%
[1]; difference vs compound 21
  encapsulation efficiency higher than compound 21: 33.0%
[1]; difference vs compound 23
  encapsulation efficiency higher than compound 23: 34.8%
[1]; ratio vs ALC-0315
  drug loading concentration, times that of ALC-0315: 1.40
  total RNA concentration, times that of ALC-0315: 1.06
[1]; ratio vs HIMA (HHMA)
  drug loading concentration, times that of HIMA: 1.15
  total RNA concentration, times that of HIMA: 1.10
[1]; ratio vs SM-102
  drug loading concentration, times that of SM-102: 1.42
  total RNA concentration, times that of SM-102: 1.11
[1]; ratio vs YK-009
  drug loading concentration, times that of YK-009: 1.37
  total RNA concentration, times that of YK-009: 1.04
[1]; ratio vs compound 21
  drug loading concentration, times that of compound 21: 1.71
  total RNA concentration, times that of compound 21: 1.39
[1]; ratio vs compound 23
  drug loading concentration, times that of compound 23: 1.88
  total RNA concentration, times that of compound 23: 1.29
[2]; LNP with 0.3 μg Fluc-mRNA, 96-well plate, 24 hours
  Relative light unit (RLU): 5044102 RLU
[2]; ratio vs YK-415
  cell transfection efficiency, times that of YK-415: 16.93
[2]; ratio vs YK-417
  cell transfection efficiency, times that of YK-417: 43.01
[2]; ratio vs YK-418
  cell transfection efficiency, times that of YK-418: 45.34
[2]; ratio vs YK-424
  cell transfection efficiency, times that of YK-424: 1.75
[2]; ratio vs compound 21
  RLU value, times that of compound 21: 3.34
[2]; ratio vs compound 23
  RLU value, times that of compound 23: 3.60
[3]; 0.5% to 15%
  transfection efficiency at different molar ratios of polymer-conjugated lipid DMG-PEG2000 to carrier: same results
[3]; 75:5:15:5 to 25:5:65:5
  transfection effect at different molar ratios of cationic lipid, neutral lipid, structured lipid and polymer-conjugated lipid: same results
[4]; ratio vs ALC-0315
  RLU value, times that of ALC-0315: 2.30
[4]; ratio vs HHMA
  RLU value, times that of HHMA: 2.43
[4]; ratio vs Lipofectamine 3000
  RLU value, times that of Lipofectamine 3000: 4.20
[4]; ratio vs YK-009
  RLU value, times that of YK-009: 0.98
[4]; ratio vs YK-405
  RLU value, times that of YK-405: 1.58
[4]; ratio vs YK-406
  RLU value, times that of YK-406: 64.46
[4]; ratio vs YK-408
  RLU value, times that of YK-408: 3.42
[4]; ratio vs YK-409
  RLU value, times that of YK-409: 7.53
[4]; ratio vs YK-410
  RLU value, times that of YK-410: 12.37
[4]; ratio vs YK-412
  cell transfection efficiency, times that of YK-412: 1.50
[4]; ratio vs YK-413
  cell transfection efficiency, times that of YK-413: 3.66
[4]; ratio vs YK-414
  cell transfection efficiency, times that of YK-414: 11.36
[4]; ratio vs YK-416
  cell transfection efficiency, times that of YK-416: 1.27
[4]; ratio vs YK-419
  cell transfection efficiency, times that of YK-419: 1.59
[4]; ratio vs YK-420
  cell transfection efficiency, times that of YK-420: 1.25
[4]; ratio vs YK-421
  cell transfection efficiency, times that of YK-421: 10.81
